Entries after “also recorded” stand apart in the source; their conditions may differ.
Columns and labels:
D54-MG glioma cells [1] = assay: glutathione levels in tumor sections (monochlorobimane fluorescence); assay type: in vivo, CB-17 scid mice; details: 8 mg 2 times per day, 44 days after tumor induction
Description: The control group and treatment group animals were those described in FIG. 7A above. For these experiments, four mice (two control and two treatment) were sacrificed at 44 days after tumor induction, and brains were rapidly frozen and cryosectioned to […], thawed on ice, and then incubated with 100 μM monochlorobimane for 10 min. Fluorescence intensities were examined using a quantitative fluorescence imaging system comparing side-by-side slices from control group and treatment group animals. In these experiments, 10 slices were examined per animal. […] After treatment with 8 mg sulfasalazine 2 times per day, glutathione levels decreased approximately 30% (from 100+/−5.6 to 71.7+/−7.5 fluorescence units; p 0.01; t test) in tumors as compared with control animals (receiving saline alone). In parallel studies, the same assay was used on cultured glioma cells to validate these readouts. A 30% decrease in glutathione levels correlates with the glutathione depletion achieved with 70 μM sulfasalazine administered for 24 h to cultured cells; the maximal decrease achieved with 250 μM sulfasalazine in cultured U87-MG cells was 68% (data not shown).

cortical astrocytes = assay: 35S-labeled cystine uptake in cortical astrocytes; assay type: cell-based; design: dose or concentration left out as unconfirmed; details: compared with D-54MG glioma cells (FIG. 2B)
Text: System Xc is a glutamate-cystine exchanger and can therefore be inhibited if the outward directed gradient for glutamate is eliminated by exposure to high concentrations of extracellular glutamate. The principal hypothesis in this study is that system Xc serves as a pipeline for cellular cystine uptake, with glutamate release being an obligatory by-product. Cystine uptake is the rate-limiting step for the synthesis of GSH, which is the main intracellular antioxidant that protects cells from oxidative stress and resulting reactive oxygen species (ROS) (Jefferies et al., 2003).

caspase-3 = assay: activated caspase-3 by Western blot analysis; assay type: cell-based, human; details: 0.5 mM; D-54MG cells (FIG. 5C)
Description: Because an accumulation of ROS can lead to apoptotic cell death, the ability of system Xc inhibitors to induce apoptosis in glioma cells was examined. […] Often apoptosis is dependent on caspase activities, so it was determined whether the system Xc inhibitors induce activated caspase-3, which is the convergent enzyme in the caspase-dependent signaling cascade. […] With 1 mM sulfasalazine, 90% of cells died over the 5 d incubation (FIG. 5E).

D54-MG glioma cells [2] = assay: histological markers of cell death and proliferation in tumor sections; assay type: in vivo, CB-17 scid mice
Text: To further examine effects of sulfasalazine in vivo at the cellular level, the tumor sections were examined with commonly used histological markers for cell death, including ApopTag/methyl green (FIGS. 8A and 8B) and terminal deoxynucleotidyl transferase-mediated biotinylated UTP nick end labeling (TUNEL) (FIGS. 8C and 8D), and proliferation (Ki-67) (FIGS. 8E and 8F). Multiple fields from several serial sections from two control group and two treatment group animals (see description above regarding FIG. 7A) were examined. […] Indeed, necrosis is a hallmark of grade IV gliomas and a necessary feature for their histopathological grading as such. At a higher resolution (40×), significant cell death was observed as evident from TUNEL (FIG. 8C) and caspase-3 staining (data not shown). In these figures, TUNEL staining is indicated by a lighter green color against a background of DAPI staining.

[3] = system: cortical neuronal cultures; assay: survival of cortical neuronal cultures; assay type: cell-based; details: (S)-4-CPG 0.25 mM and 0.5 mM (FIG. 3C); sulfasalazine data not shown

For `O=C(O)c1cc(/N=N/c2ccc(S(=O)(=O)Nc3ccccn3)cc2)ccc1O` [sulfasalazine], the “glutathione levels in tumors” value (D54-MG glioma cells [1]; control 100+/−5.6) was 71.7+/−7.5 fluorescence units, the “decrease of glutathione levels in tumors” value (D54-MG glioma cells [1]; versus saline control) was “approximately 30%” and the “inhibition of cystine uptake in cortical astrocytes” value (cortical astrocytes) was “to a significantly lesser degree; also recorded: only a limited inhibition”. For the same compound, the “activated form of caspase-3” value (caspase-3) was “increased the activated form of caspase-3”, the “tumor necrosis (ApopTag)” value (D54-MG glioma cells [2]; sulfasalazine-treated animals of FIG. 7A (FIG. 8B)) was “almost no evidence for necrosis” and the Ki-67 index (D54-MG glioma cells [2]; sulfasalazine-treated tumor sections, similar to control, no significant difference) was “approximately 15”. The “TUNEL labeling in tumor sections” value (D54-MG glioma cells [2]; sulfasalazine-treated versus control (FIG. 8D), not statistically significant) was “reduced TUNEL”, the “caspase-3 labeling in tumor sections” value (D54-MG glioma cells [2]; sulfasalazine-treated versus control, data not shown) was “reduced” and the “survival/growth of cortical neuronal cultures” value [3] was “Neither (S)-4-CPG (FIG. 3C) nor sulfasalazine (data not shown) affected”.
